US20090208434A1, “3-(4-hydroxy-3-methoxyphenyl)-1-(4-hydroxyphenyl)-1-propanone and its use in cosmetic and pharmaceutical preparations” (SYMRISE GmbH & Co. KG, priority 2008, published 2009)

How the values were obtained:
[1] = Sensitization and irritation test of the compound itself; details: test concentration of 50% by weight
Source text: The inventive compound of formula 1 with an anti-inflammatory effect can also be used as a component of inventive scent compositions (odorous substance compositions) and for example to give a perfumed finished product an anti-inflammatory effect. Since the proportion of perfume in a cosmetic finished product is often around 1% by weight, a scent containing the inventive compound of formula 1, will preferably include or be comprised approximately 1-50% by weight of the compound of formula 1.

[2] = Investigations of the chemical characteristics (stability); type: physicochemical
Source text: Furthermore, once the inventive compound of formula 1 had been incorporated into inventive cosmetic and pharmaceutical preparations no discoloration of this preparation was detected.

IL-1 = experiment: Inhibition of upregulation of inflammatory mediators: IL-1; details: according to the dose and even at low concentrations
Source text: (§1) It can therefore be used as an outstanding alternative or as an addition to other already well-known anti-inflammatory compounds (active substances) in cosmetic and pharmaceutical preparations or similar as an anti-inflammatory active substance.

IL-6 = experiment: Inhibition of upregulation of inflammatory mediators: IL-6; details: according to the dose and even at low concentrations
Source text: as §1

PGE-2 (prostaglandin E2) = experiment: Inhibition of upregulation of inflammatory mediators: PGE-2; details: according to the dose and even at low concentrations
Source text: as §1

[3] = test system: TNF-alpha (tumor necrosis factor alpha); experiment: Inhibition of upregulation of inflammatory mediators: TNF-alpha; details: according to the dose and even at low concentrations
Source text: as §1

## COc1cc(CCC(=O)c2ccc(O)cc2)ccc1O [compound of formula 1, 3-(4-hydroxy-3-methoxyphenyl)-1-(4-hydroxyphenyl)-1-propanone]
[1]
  irritation: did not cause irritation
  sensitization: not sensitizing
[2]
  photostability: high photostability
  temperature stability: high temperature stability
[2]; broad pH range
  stability in a broad pH range: high stability in a broad pH range
IL-1
  upregulation of IL-1 caused by extrinsic and intrinsic factors: inhibiting the upregulation
IL-6
  upregulation of IL-6 caused by extrinsic and intrinsic factors: inhibiting the upregulation
PGE-2 (prostaglandin E2)
  upregulation of PGE-2 caused by extrinsic and intrinsic factors: inhibiting the upregulation
[3]
  upregulation of TNF-alpha caused by extrinsic and intrinsic factors: inhibiting the upregulation
